From PMC5848165 (Toxins, 2018)
Residues, ends and D or L forms follow the SMILES beside them.

Key:
[1] = test system: chimera #2, Nav1.7 (Nav1.5-DIV-S3-S4); assay: Whole-cell patch clamp, chimera #2 in HEK293 cells; format: cell-based, human Nav1.7 / rat Nav1.5; settings: n = 5, −10 mV from −80 mV
Description: Many animal toxins alter activation or inactivation of sodium channels by binding to the S3–S4 regions of channels, which are probably the external linkers or voltage sensors of sodium channels. α-Scorpion toxins slow down fast-inactivation of sodium channels by binding to the extracellular linker loop of DIVS3-S4 (neurotoxin site 3). Meanwhile, β-scorpion toxins that interact with DIIS3-S4 linker enhance the activation of sodium channels by trapping DII voltage sensor in an activated state. As Nav1.5 channel is resistant to the inhibition of JZTX-34, we investigated the binding site of JZTX-34 to Nav1.7 by constructing chimeric channels between Nav1.5 and Nav1.7. […]
(§1) The HEK293T cells were maintained in standard culture conditions (5% CO2 and 37 °C). […] After culturing for 36–72 h, cells with obvious green fluorescence were selected for sodium currents recordings the internal solution for sodium currents recording that contained (in mM) 140 CsF, 5 NaCl, 10 HEPES, 3 Na2-ATP, and 10 EGTA. […]
Sodium currents were recorded from DRG, HEK293, and ND cells by the whole-cell patch-clamp technique at 25 °C. […] Experiments date were acquired from whole-cell Axon 700B patch clamp amplifier (Molecular Devices, Sunnyvale, CA, USA) and analyzed by the program Clampfit10.0 (Molecular Devices, Sunnyvale, CA, USA) and Sigmaplot. […]

[2] = test system: WT Nav1.7, domain II voltage sensor; assay: Voltage sensor trapping test on WT Nav1.7 (patch clamp pulse protocols); format: cell-based, human; settings: 10 µM
Description: It has been proven that scorpion β-toxins trapped the domain II S4 voltage sensor in the outward position. However, HWTX-IV inhibited sodium channels by trapping voltage sensor in a closed configuration [15]. We wondered whether JZTX-34 blocked sodium channels in a resting state or an outward position. The current traces were recorded by a 50 ms depolarizing pulse of −10 mV from a holding potential of −80 mV. At first, 10 µM JZTX-34 was added to cells and incubated for 5 min. Then, the currents were elicited by the protocol described before. […] To further confirm this, the same protocol described by Cestele et al. was used to assess whether JZTX-34 traps the domain II S4 voltage sensor of the WT Nav1.7 in a closed position. A 15 ms test pulse to 0 mV was applied from a holding potential of −80 mV and was followed by a 1 ms conditioning pulse to +50 mV. Then, a 15 ms test pulse to −65 mV was used to detect whether the currents were elicited.
Figure 5 JZTX-34 traps the domain II voltage sensor in closed configuration. (A) Nav1.7 current traces were elicited by a protocol as following. First, an inward sodium currents were elicited by a 50 ms depolarizing potential to 0 mV from a holding potential of −80 mV every 5 s. Second, 10 μM JZTX-34 were added to bath solution. Finally, the same pulse protocol was applied to elicit inward currents after a 5 min toxin treatment. (B) The current traces 0, 15 ms, 100 ms, and 5 min after toxin treatment are shown, which were elicited by a protocol as shown in C. (C) This pulse protocol was included three phases and applied every 5 s. […]
as §1
Sodium currents were recorded from DRG, HEK293, and ND cells by the whole-cell patch-clamp technique at 25 °C. […]

CC(C)C[C@@H]1NC(=O)[C@H](Cc2c[nH]c3ccccc23)NC(=O)[C@H](CCC(=O)O)NC(=O)[C@H](CCCNC(=N)N)NC(=O)[C@@H](NC(=O)[C@H](C)N)CSSC[C@@H]2NC(=O)[C@@H]3CSSC[C@@H](C(=O)N[C@H](C(=O)N[C@@H](Cc4c[nH]c5ccccc45)C(=O)N[C@@H](CC(=O)O)C(=O)N[C@@H](Cc4c[nH]c5ccccc45)C(=O)N[C@H](C(=O)N[C@H](C(=O)O)C(C)C)[C@@H](C)O)C(C)C)NC(=O)[C@H](Cc4c[nH]cn4)NC(=O)[C@H](Cc4ccc(O)cc4)NC(=O)[C@@H]4CCCN4C(=O)[C@H](Cc4c[nH]c5ccccc45)NC(=O)[C@H](CCCCN)NC(=O)[C@H](CCCCN)NC(=O)[C@H](CCCNC(=N)N)NC(=O)[C@H](CSSC[C@H](NC(=O)CNC(=O)CNC1=O)C(=O)N[C@@H](CO)C(=O)N[C@@H](CCCCN)C(=O)N[C@@H](CC(=O)O)C(=O)N[C@@H](C)C(=O)N[C@@H](CC(=O)O)C(=O)N3)NC(=O)[C@H](CCC(=O)O)NC(=O)[C@H](CC(C)C)NC(=O)[C@H](Cc1c[nH]cn1)NC(=O)[C@H](C)NC2=O [JZTX-34, Jingzhaotoxin-34] (HELM PEPTIDE1{A.C.R.E.W.L.G.G.C.S.K.D.A.D.C.C.A.H.L.E.C.R.K.K.W.P.Y.H.C.V.W.D.W.T.V}$PEPTIDE1,PEPTIDE1,2:R3-16:R3|PEPTIDE1,PEPTIDE1,9:R3-21:R3|PEPTIDE1,PEPTIDE1,15:R3-29:R3$$$V2.0; N-terminus and C-terminus assumed)
inhibition of chimera #2 currents ([1]; 1 µM): 43.6 ± 4.5% | inhibition of chimera #2 currents ([1]; 10 µM): 76.3 ± 3.6% | inhibition at first pulse after incubation at rest ([2]; 5 min incubation, −10 mV (legend: 0 mV) from −80 mV): currents were significantly inhibited at the first pulse | current amplitude at first test pulse (0 mV) ([2]; 15 ms test pulse to 0 mV from −80 mV): greatly depressed in a time-dependent manner | inward current at second test pulse (−65 mV) ([2]; after 1 ms conditioning pulse to +50 mV): no inward current was observed
